Source: patent EP2327700A1, “Dialkyl triazinamines and use thereof for combating undesired plant growth” (Bayer CropScience AG, priority 2009, dated 2011)

What was measured:
[1] = test system: Lolium multiflorum; assay: Herbicidal action pre-emergence (greenhouse pot test); format: in vivo; details: 320 g/ha, visual rating after 3 weeks vs untreated controls
Source text: (§1) • 1. Herbizide Wirkung bzw. Kulturpflanzenverträglichkeit im Vorauflauf Samen von mono- bzw. dikotylen Unkraut- bzw. Kulturpflanzen werden in Holzfasertöpfen in sandiger Lehmerde ausgelegt und mit Erde abgedeckt. Die in Form von benetzbaren Pulvern (WP) oder als Emulsionskonzentrate (EC) formulierten erfindungsgemäßen Verbindungen werden dann als wäßrige Suspension bzw. Emulsion mit einer Wasseraufwandmenge von umgerechnet 600 bis 800 I/ha unter Zusatz von 0,2% Netzmittel auf die Oberfläche der Abdeckerde appliziert. Nach der Behandlung werden die Töpfe im Gewächshaus aufgestellt und unter guten Wachstumsbedingungen für die Testpflanzen gehalten. Die visuelle Bonitur der Schäden an den Versuchspflanzen erfolgt nach einer Versuchszeit von 3 Wochen im Vergleich zu unbehandelten Kontrollen (herbizide Wirkung in Prozent (%): 100% Wirkung = Pflanzen sind abgestorben, 0 % Wirkung = wie Kontrollpflanzen). Dabei zeigen beispielsweise die Verbindungen Nr. I-16, I-17, I-48, I-50, I-51, I-52, I-54 und I-63 bei einer Aufwandmenge von 320 g/ha jeweils eine mindestens 80%-ige Wirkung gegen Lolium multiflorum, Setaria viridis und Stellaria media. Die Verbindungen Nr. I-64, I-65, I-66, I-68, I-69 und I-70 zeigen bei einer Aufwandmenge von 320 g/ha jeweils eine mindestens 80%-ige Wirkung gegen Amaranthus retroflexus, Pharbitis purpureumund Veronica persica. • 2. Herbizide Wirkung bzw. Kulturpflanzenverträglichkeit im Nachauflauf Samen von mono- bzw. dikotylen Unkraut- bzw. Kulturpflanzen werden in Holzfasertöpfen in sandigem Lehmboden ausgelegt, mit Erde abgedeckt und im Gewächshaus unter guten Wachstumsbedingungen angezogen. 2 bis 3 Wochen nach der Aussaat werden die Versuchspflanzen im Einblattstadium behandelt. Die in Form von benetzbaren Pulvern (WP) oder als Emulsionskonzentrate (EC) formulierten erfindungsgemäßen Verbindungen werden dann als wäßrige Suspension bzw. Emulsion mit einer Wasseraufwandmenge von umgerechnet 600 bis 800 I/ha unter Zusatz von 0,2% Netzmittel auf die grünen Pflanzenteile gesprüht. Nach ca. 3 Wochen Standzeit der Versuchspflanzen im Gewächshaus unter optimalen Wachstumsbedingungen wird die Wirkung der Präparate visuell im Vergleich zu unbehandelten Kontrollen bonitiert (herbizide Wirkung in Prozent (%): 100% Wirkung = Pflanzen sind abgestorben, 0 % Wirkung = wie Kontrollpflanzen). Dabei zeigen beispielsweise die Verbindungen Nr. I-50, I-52, I-54 und I-64 bei einer Aufwandmenge von 320 g/ha jeweils eine mindestens 80%-ige Wirkung gegen Alopecurus myosuroides, Setaria viridis und Stellaria media. Die Verbindungen Nr. I-51, I-63, I-66, I-69 und I-70 zeigen bei einer Aufwandmenge von 320 g/ha jeweils eine mindestens 80%-ige Wirkung gegen Alopecurus myosuroides, Veronica persica und Viola tricolor.

[2] = test system: Setaria viridis; assay: as above; format: in vivo; details: 320 g/ha, visual rating after 3 weeks vs untreated controls
Source text: as §1

[3] = test system: Stellaria media; assay: as above; format: in vivo; details: 320 g/ha, visual rating after 3 weeks vs untreated controls
Source text: as §1

[4] = test system: Alopecurus myosuroides; assay: Herbicidal action post-emergence (greenhouse pot test); format: in vivo; details: 320 g/ha, visual rating after ca. 3 weeks vs untreated controls
Source text: as §1

[5] = test system: Setaria viridis; assay: as above; format: in vivo; details: 320 g/ha, visual rating after ca. 3 weeks vs untreated controls
Source text: as §1

[6] = test system: Stellaria media; assay: as above; format: in vivo; details: 320 g/ha, visual rating after ca. 3 weeks vs untreated controls
Source text: as §1

[7] = logp (HCOOH) determination; format: physicochemical
[8] = test system: Veronica persica; assay: Herbicidal action post-emergence (greenhouse pot test); format: in vivo; details: 320 g/ha, visual rating after ca. 3 weeks vs untreated controls
Source text: as §1

[9] = test system: Viola tricolor; assay: as above; format: in vivo; details: 320 g/ha, visual rating after ca. 3 weeks vs untreated controls
Source text: as §1

[10] = test system: Amaranthus retroflexus; assay: Herbicidal action pre-emergence (greenhouse pot test); format: in vivo; details: 320 g/ha, visual rating after 3 weeks vs untreated controls
Source text: as §1

[11] = test system: Pharbitis purpureum; assay: as above; format: in vivo; details: 320 g/ha, visual rating after 3 weeks vs untreated controls
Source text: as §1

[12] = test system: Veronica persica; assay: as above; format: in vivo; details: 320 g/ha, visual rating after 3 weeks vs untreated controls
Source text: as §1

Cc1cc(C)c2c(c1)C(Nc1nc(C)nc(C)n1)CCC2 (stereo not drawn) [I-17, N2-(5,7-Dimethyl-1,2,3,4-tetrahydro-1-naphthalenyl)-4,6-dimethyl-1,3,5-triazin-2-amine]
herbizide Wirkung in Prozent (%) [1]: ≥ 80% | herbizide Wirkung in Prozent (%) [2]: ≥ 80% | herbizide Wirkung in Prozent (%) [3]: ≥ 80%

Cc1ccc2c(c1)[C@H](Nc1nc(C)nc(C(C)C)n1)[C@@H](C)C2 [I-50]
herbizide Wirkung in Prozent (%) [1]: ≥ 80% | herbizide Wirkung in Prozent (%) [2]: ≥ 80% | herbizide Wirkung in Prozent (%) [3]: ≥ 80% | herbizide Wirkung in Prozent (%) [4]: ≥ 80% | herbizide Wirkung in Prozent (%) [5]: ≥ 80% | herbizide Wirkung in Prozent (%) [6]: ≥ 80% | chromatographic logP ([7]; hcooh): 2.16

Cc1ccc2c(c1)[C@H](Nc1nc(C)nc(C(C)(C)C)n1)[C@@H](C)C2 [I-51]
herbizide Wirkung in Prozent (%) [1]: ≥ 80% | herbizide Wirkung in Prozent (%) [2]: ≥ 80% | herbizide Wirkung in Prozent (%) [3]: ≥ 80% | herbizide Wirkung in Prozent (%) [4]: ≥ 80% | herbizide Wirkung in Prozent (%) [8]: ≥ 80% | herbizide Wirkung in Prozent (%) [9]: ≥ 80% | chromatographic logP ([7]; hcooh): 3.56

CCc1nc(C)nc(N[C@H]2c3cc(C)ccc3C[C@@H]2C)n1 [I-52]
herbizide Wirkung in Prozent (%) [1]: ≥ 80% | herbizide Wirkung in Prozent (%) [2]: ≥ 80% | herbizide Wirkung in Prozent (%) [3]: ≥ 80% | herbizide Wirkung in Prozent (%) [4]: ≥ 80% | herbizide Wirkung in Prozent (%) [5]: ≥ 80% | herbizide Wirkung in Prozent (%) [6]: ≥ 80% | chromatographic logP ([7]; hcooh): 1.85

CCc1nc(C)nc(N[C@@H]2CCCc3ccccc32)n1 [I-53]
chromatographic logP ([7]; hcooh): 1.48

COCc1nc(C)nc(N[C@H]2c3cc(C)ccc3C[C@@H]2C)n1 [I-54, N-[(1R,2S)-2,6-Dimethyl-2,3-dihydro-1H-inden-1-yl]-4-(methoxymethyl)-6-methyl-1,3,5-triazin-2-amin]
herbizide Wirkung in Prozent (%) [1]: ≥ 80% | herbizide Wirkung in Prozent (%) [2]: ≥ 80% | herbizide Wirkung in Prozent (%) [3]: ≥ 80% | herbizide Wirkung in Prozent (%) [4]: ≥ 80% | herbizide Wirkung in Prozent (%) [5]: ≥ 80% | herbizide Wirkung in Prozent (%) [6]: ≥ 80% | chromatographic logP ([7]; HCOOH (formic acid)): 2.16

Cc1ccc2c(c1)[C@H](Nc1nc(C)nc(C)n1)[C@@H](C)C2 [I-63]
herbizide Wirkung in Prozent (%) [1]: ≥ 80% | herbizide Wirkung in Prozent (%) [2]: ≥ 80% | herbizide Wirkung in Prozent (%) [3]: ≥ 80% | herbizide Wirkung in Prozent (%) [4]: ≥ 80% | herbizide Wirkung in Prozent (%) [8]: ≥ 80% | herbizide Wirkung in Prozent (%) [9]: ≥ 80% | chromatographic logP ([7]; hcooh): 1.59

Cc1ccc2c(c1)[C@H](Nc1nc(C)nc(C(F)F)n1)[C@@H](C)C2 [I-64]
herbizide Wirkung in Prozent (%) [10]: ≥ 80% | herbizide Wirkung in Prozent (%) [11]: ≥ 80% | herbizide Wirkung in Prozent (%) [12]: ≥ 80% | herbizide Wirkung in Prozent (%) [4]: ≥ 80% | herbizide Wirkung in Prozent (%) [5]: ≥ 80% | herbizide Wirkung in Prozent (%) [6]: ≥ 80% | chromatographic logP ([7]; hcooh): 3.44

Cc1ccc2c(c1)[C@H](Nc1nc(C)nc(C(F)(F)Cl)n1)[C@@H](C)C2 [I-66]
herbizide Wirkung in Prozent (%) [10]: ≥ 80% | herbizide Wirkung in Prozent (%) [11]: ≥ 80% | herbizide Wirkung in Prozent (%) [12]: ≥ 80% | herbizide Wirkung in Prozent (%) [4]: ≥ 80% | herbizide Wirkung in Prozent (%) [8]: ≥ 80% | herbizide Wirkung in Prozent (%) [9]: ≥ 80% | chromatographic logP ([7]; hcooh): 4.36

Cc1nc(N[C@@H]2CCCc3ccccc32)nc(C(F)(F)Cl)n1 [I-67]
chromatographic logP ([7]; hcooh): 3.9

Cc1ccc2c(c1)[C@H](Nc1nc(C)nc(C(Cl)Cl)n1)[C@@H](C)C2 [I-69]
herbizide Wirkung in Prozent (%) [10]: ≥ 80% | herbizide Wirkung in Prozent (%) [11]: ≥ 80% | herbizide Wirkung in Prozent (%) [12]: ≥ 80% | herbizide Wirkung in Prozent (%) [4]: ≥ 80% | herbizide Wirkung in Prozent (%) [8]: ≥ 80% | herbizide Wirkung in Prozent (%) [9]: ≥ 80% | chromatographic logP ([7]; hcooh): 4.13

Cc1ccc2c(c1)[C@H](Nc1nc(C)nc(C(Cl)(Cl)Cl)n1)[C@@H](C)C2 [I-70, N-[(1R,2S)-2,6-Dimethyl-2,3-dihydro-1H-inden-1-yl]-4-methyl-6-(trichloromethyl)-1,3,5-triazin-2-amin]
herbizide Wirkung in Prozent (%) [10]: ≥ 80% | herbizide Wirkung in Prozent (%) [11]: ≥ 80% | herbizide Wirkung in Prozent (%) [12]: ≥ 80% | herbizide Wirkung in Prozent (%) [4]: ≥ 80% | herbizide Wirkung in Prozent (%) [8]: ≥ 80% | herbizide Wirkung in Prozent (%) [9]: ≥ 80% | chromatographic logP ([7]; HCOOH (formic acid)): 4.85

Cc1nc(N[C@@H]2CCCc3ccccc32)nc(C(Cl)(Cl)Cl)n1 [I-71]
chromatographic logP ([7]; hcooh): 4.4

Cc1nc(C)nc(N[C@@H]2CCCc3ccccc32)n1 [I-78, 4,6-Dimethyl-N-[(1R)-1,2,3,4-tetrahydronaphthalen-1-yl]-1,3,5-triazin-2-amine]
chromatographic logP ([7]; HCOOH (formic acid)): 1.35

Cc1nc(N[C@H]2c3cc(Br)ccc3C[C@@H]2C)nc(C(F)(F)Cl)n1 [I-81]
chromatographic logP ([7]; hcooh): 3.8

Cc1nc(NC2CC(C)(C)Oc3cc(Cl)c(F)cc32)nc(C(F)(F)Cl)n1 (stereo not drawn) [I-82]
chromatographic logP ([7]; hcooh): 4.32

Cc1nc(N[C@@H]2CCOc3c(F)cccc32)nc(C(F)(F)Cl)n1 [I-83]
chromatographic logP ([7]; hcooh): 3.06

Cc1nc(N[C@@H]2CCOc3ccccc32)nc(C(F)(F)Cl)n1 [I-84]
chromatographic logP ([7]; hcooh): 3.11

Cc1ccc2c(c1)[C@H](Nc1nc(C)nc(C(F)(F)F)n1)[C@@H](C)C2 [I-87]
chromatographic logP ([7]; hcooh): 4.21

Cc1nc(N[C@@H]2CCc3ccccc32)nc(C(F)F)n1 [I-91]
chromatographic logP ([7]; hcooh): 2.69

Cc1nc(NC2CC(C)(C)Oc3cc(Cl)c(F)cc32)nc(C(F)F)n1 (stereo not drawn) [I-95]
chromatographic logP ([7]; hcooh): 4.32

Cc1nc(NC2CCc3ccc(C(C)C)cc32)nc(C(F)F)n1 (stereo not drawn) [I-100]
chromatographic logP ([7]; hcooh): 3.79

CCOc1ccc2c(c1)C(Nc1nc(C)nc(C(F)F)n1)CCC2 (stereo not drawn) [I-122]
chromatographic logP ([7]; hcooh): 3.34

Cc1nc(NC2CCOc3ccc(C(C)C)cc32)nc(C(F)F)n1 (stereo not drawn) [I-125]
chromatographic logP ([7]; hcooh): 3.41

Cc1ccc2c(c1)OC(C)(C)CC2Nc1nc(C)nc(C(F)F)n1 (stereo not drawn) [I-130]
chromatographic logP ([7]; hcooh): 3.3

CCc1ccc2c(c1)C(Nc1nc(C)nc(C(F)F)n1)CCO2 (stereo not drawn) [I-134]
chromatographic logP ([7]; hcooh): 3.1

CCc1ccc2c(c1)C(Nc1nc(C)nc(C(F)(F)F)n1)CCO2 (stereo not drawn) [I-135]
chromatographic logP ([7]; hcooh): 3.71

Cc1nc(NC2c3ccc(Cl)cc3CC2C)nc(C(F)F)n1 (stereo not drawn) [I-137]
chromatographic logP ([7]; hcooh): 3.58

Cc1nc(NC2CCc3c(C)cccc32)nc(C(F)(F)Cl)n1 (stereo not drawn) [I-147]
chromatographic logP ([7]; hcooh): 3.98

COc1ccc2c(c1)CCCC2Nc1nc(C)nc(C(F)F)n1 (stereo not drawn) [I-159]
chromatographic logP ([7]; hcooh): 2.9

Cc1nc(C)nc(NC2CCc3c(C)cccc32)n1 (stereo not drawn) [I-168, 4,6-Dimethyl-N-(4-methyl-2,3-dihydro-1H-inden-1-yl)-1,3,5-triazin-2-amine]
chromatographic logP ([7]; HCOOH (formic acid)): 1.36

Cc1nc(N[C@H]2c3cc(Br)ccc3C[C@@H]2C)nc(C(F)F)n1 [I-235, N-[trans-6-Brom-2-methyl-2,3-dihydro-1H-inden-1-yl]-4-(difluoromethyl)-6-methyl-1,3,5-triazin-2-amin]
chromatographic logP ([7]; hcooh): 3.55

COc1ccc2c(c1)C(Nc1nc(C)nc(C(F)(F)F)n1)CCO2 (stereo not drawn) [I-237]
chromatographic logP ([7]; hcooh): 2.93

CCc1ccc2c(c1)C(Nc1nc(C)nc(C)n1)CCO2 (stereo not drawn) [I-238]
chromatographic logP ([7]; hcooh): 1.51
